Measurements reported in patent US12433913B2, “Treatment of acute respiratory disease syndrome (ARDS) with polysulfated polysaccharides” (Paradigm Biopharmaceuticals Ltd., priority 2020, dated 2025).
Where “and” joins values, the source holds several entries; their conditions need not be identical. Identical values can stand only once. Like-named read-outs stand apart in the source and are kept apart here.

Key:
[1] = biological target: T1, human leukocyte elastase (human neutrophil elastase) (Homo sapiens, UniProt P08246); conditions: cited from earlier work
T1 sequence (P08246 30-267): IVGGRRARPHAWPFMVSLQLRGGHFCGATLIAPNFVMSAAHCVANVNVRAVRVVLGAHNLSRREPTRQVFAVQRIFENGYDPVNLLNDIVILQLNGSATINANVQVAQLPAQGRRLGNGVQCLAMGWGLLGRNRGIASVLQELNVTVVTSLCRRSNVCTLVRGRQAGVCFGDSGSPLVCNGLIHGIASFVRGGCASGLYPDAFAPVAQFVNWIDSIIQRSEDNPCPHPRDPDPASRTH

allergen induced asthma = conditions: intra-tracheal PPS; cited from earlier work
alphavirus = conditions: within 3 to 10 days post PPS treatment in infected animals; cited from earlier work
[2] = 2 mg/kg twice weekly subcutaneously; cited from earlier work
SARS-CoV-2 [3] = type: cell-based, Vero (Africa Green Monkey kidney epithelium); conditions: for PFU/well: replicates
[4] = system: H1N1 PR-8 influenza strain; assay: Influenza virus-induced ARDS mouse model (Study 1); type: in vivo, C57BL/6J mice
SARS-CoV-2 [5] = type: cell-based, Vero (Africa Green Monkey kidney epithelium); conditions: for PFU/well: replicates; remark: listed apart in the source
SARS-CoV-2 [6] = type: cell-based, Vero (Africa Green Monkey kidney epithelium); conditions: for PFU/well: replicates; remark: listed apart in the source
IL-8, MCP-1 and MIP-1a = conditions: cited from earlier work

pentosan polysulfate [PPS]
Activity on human leukocyte elastase [1]: antagonist
Airway hyper-reactivity (allergen induced asthma): inhibited
Lung compliance (allergen induced asthma): increased
Total number of infiltrating leukocytes and neutrophils in the bronchoalveolar fluid (allergen induced asthma): significantly reduced
Total protein content in the bronchoalveolar fluid (allergen induced asthma): significantly reduced
Cytokine response (IL-1a; IL-2, IL-6, MIP1a and CCL2) (alphavirus): reduction
Effect on blood coagulation [2]: no lasting effect on blood coagulation
PFU/well (SARS-CoV-2 [3]; PPS 12.5 μg/ml on Vero cells 30 min prior to infection with 50 PFU): 35 PFU/well and 33 PFU/well and 34 PFU/well and 40 PFU/well and 41 PFU/well and 39 PFU/well and 36 PFU/well and 37 PFU/well
PFU/well (SARS-CoV-2 [3]; PPS 25 μg/ml on Vero cells 30 min prior to infection with 50 PFU): 29 PFU/well and 31 PFU/well and 27 PFU/well and 25 PFU/well
PFU/well (SARS-CoV-2 [3]; PPS 200 μg/ml on Vero cells 30 min prior to infection with 50 PFU): 18 PFU/well (2×) and 16 PFU/well (2×) and 20 PFU/well and 21 PFU/well and 17 PFU/well and 19 PFU/well
Maximum inhibition of plaque formation (SARS-CoV-2 [3]; top dose of 200 μg/ml, cells treated 30 min prior to infection): 60%
Number of nuclei/mm^2 in lung sections ([4]; 3 mg/kg daily ip, Day 8, compared to vehicle treated animals): statistically significant reduction
Number of nuclei/mm^2 in lung sections ([4]; 3 mg/kg daily sc, Day 8, compared to vehicle treated animals): statistically significant reduction
Level of nuclei/mm^2 in infected PPS treated animals relative to uninfected animals ([4]; 3 mg/kg daily, Day 8): comparable to uninfected animals
Weight loss ([4]; 3 mg/kg daily, ip or sc, compared to infected animals treated with vehicle): reduced weight loss
Cellular infiltration in representative lung sections ([4]; 3 mg/kg ip or sc, Day 8, compared to vehicle treated animals): reduced cellular infiltration
Fibrotic response (collagen, Masson's Trichrome stain) ([4]; 3 mg/kg sc from Day 0 or Day 2 post-infection, Day 21, compared to vehicle): fibrotic response was reduced
Oxygen saturation levels ([4]; 3 mg/kg sc from Day 0 or Day 2 post-infection, measured Day 6 and Day 8, compared to vehicle treated infected animals): improved oxygen saturation levels
PFU/well (SARS-CoV-2 [5]; PPS 12.5 μg/ml incubated with virus inoculum 30 min prior to addition to Vero cells): 31 PFU/well and 33 PFU/well and 39 PFU/well and 34 PFU/well and 42 PFU/well and 38 PFU/well and 40 PFU/well and 37 PFU/well
PFU/well (SARS-CoV-2 [5]; PPS 25 μg/ml incubated with virus inoculum 30 min prior to addition to Vero cells): 25 PFU/well and 28 PFU/well (2×) and 31 PFU/well (2×) and 34 PFU/well and 33 PFU/well and 35 PFU/well
PFU/well (SARS-CoV-2 [5]; PPS 50 μg/ml incubated with virus inoculum 30 min prior to addition to Vero cells): 24 PFU/well and 21 PFU/well and 28 PFU/well and 31 PFU/well and 32 PFU/well and 30 PFU/well and 29 PFU/well and 26 PFU/well
PFU/well (SARS-CoV-2 [5]; PPS 100 μg/ml incubated with virus inoculum 30 min prior to addition to Vero cells): 19 PFU/well and 17 PFU/well and 23 PFU/well and 26 PFU/well and 22 PFU/well (2×) and 25 PFU/well and 27 PFU/well
PFU/well (SARS-CoV-2 [5]; PPS 200 μg/ml incubated with virus inoculum 30 min prior to addition to Vero cells): 16 PFU/well and 12 PFU/well and 20 PFU/well (2×) and 22 PFU/well and 21 PFU/well and 23 PFU/well and 24 PFU/well
Maximum inhibition of plaque formation (SARS-CoV-2 [5]; top dose of 200 μg/ml, virus treated 30 min prior to infection): 56%
PFU/well (SARS-CoV-2 [6]; PPS 12.5 μg/ml incubated with both virus and cells 30 min prior to infection): 18 PFU/well and 19 PFU/well and 17 PFU/well and 22 PFU/well and 20 PFU/well (2×) and 25 PFU/well and 26 PFU/well
PFU/well (SARS-CoV-2 [6]; PPS 25 μg/ml incubated with both virus and cells 30 min prior to infection): 18 PFU/well and 15 PFU/well (2×) and 20 PFU/well and 21 PFU/well and 19 PFU/well and 22 PFU/well and 17 PFU/well
PFU/well (SARS-CoV-2 [6]; PPS 50 μg/ml incubated with both virus and cells 30 min prior to infection): 12 PFU/well and 14 PFU/well (2×) and 15 PFU/well and 13 PFU/well and 18 PFU/well (2×) and 16 PFU/well
PFU/well (SARS-CoV-2 [6]; PPS 100 μg/ml incubated with both virus and cells 30 min prior to infection): 8 PFU/well and 12 PFU/well and 11 PFU/well and 7 PFU/well and 13 PFU/well and 10 PFU/well and 16 PFU/well and 9 PFU/well
PFU/well (SARS-CoV-2 [6]; PPS 200 μg/ml incubated with both virus and cells 30 min prior to infection): 6 PFU/well and 12 PFU/well and 10 PFU/well (2×) and 8 PFU/well and 11 PFU/well and 14 PFU/well and 13 PFU/well
Maximum inhibition of plaque formation (SARS-CoV-2 [6]; top dose of 200 μg/ml, virus and cells treated 30 min prior to infection): 77%
Cell movement induced by IL-8, MCP-1 and MIP-1a (IL-8, MCP-1 and MIP-1a): inhibits cell movement
